Series [1] is described as follows: Release kinetics of melatonin, USP Apparatus 2 dissolution testing. The class given is physicochemical. The settings on record: after 20 minutes; 500 ml buffer pH 6.8, 50 rpm, 37° C., 5 mg melatonin. The procedure: The release kinetics of melatonin was monitored using a USP Apparatus 2 dissolution testing system. The release was performed in 500 ml buffer at pH 6.8 (reflecting the pH in the oral cavity, typically in the range of pH 6.7 to 7.3) at 50 rpm stirring rate and 37° C. The dose in the dissolution tests was equivalent to 5 mg of melatonin. Melatonin was bought from PureBulk, Inc. USA. The dosage form with melatonin was compared to reference product from CVS Health, USA using the technology mentioned in U.S. Pat. No. 9,381,190 Other ingredients in the formulation include Microcrystalline cellulose (MCC) and Low-Substituted Hydroxypropyl Cellulose (L-HPC) Mannitol and magnesium stearate.

Series [2] in a line: HPLC stability of melatonin during loading and storage. The format is physicochemical. The settings on record: during loading and after storage at 4° C.
The conditions of series [3]: cited from earlier work.

Molecules are shown by their SMILES. In brackets after ≈: the same amount, converted by molar mass. Where two headings read alike, the source gives them in different places.

As a reminder, the solubility is how much of the substance goes into solution per volume.

As for `COc1ccc2[nH]cc(CCNC(C)=O)c2c1` [melatonin], the “dissolution (melatonin released)” value in series [1] came to 93%. Also, the “stability (HPLC)” value in series [2] is reported as “no degradation”.
In the case of `CCN(CC)CCNC(=O)c1cc(Cl)c(N)cc1OC` [metoclopramide], the solubility in series [3] (in buffer at pH 6.8) is 10000 µg/mL (≈ 33.4 mM); in series [3] (in water), > 6000 µg/mL.

The record behind these values is US20200078307A1, “POROUS SILICA PARTICLES FOR USE IN A COMPRESSED PHARMACEUTICAL DOSAGE FORM” (Nanologica AB, priority 2018, published 2020).
